Assay results reported in US20110039770A1, “INHIBITORS OF PROTEIN KINASE C ISOFORMS AND USES THEREOF” (PHARMAGAP INC., priority 2005, published 2011).
Where a SMILES comes first, the peptide text is derived from it. The star is where a group is joined. PNA(A) = NCCN(CC(=O)*)C(=O)Cn1cnc2c(N)ncnc21

Columns and labels:
[1] = biological target: T1, PKC-α (Rattus norvegicus, UniProt P05696); experiment: Competition of PRE with PKC-α antibody binding on Western blot, Protocol A, C6Cx43 lysate; details: C6Cx43 cells
T1 construct: C6Cx43 cells (rat glioma transfected cells overexpressing connexin 43); endogenous in cells; host or cells: C6Cx43 rat glioma cells (transfected with connexin 43, not with PKC)
Description: The ability of the PRE 1, 2 and 3 (see Table 3 above) to interfere with the binding of a PKC-α-specific polyclonal antibody to PKC-α was determined using the following protocol.
Cell lysates from either IMR-32 (human neuroblastoma) cells or C6Cx43 cells (rat glioma transfected cells overexpressing connexin 43) were obtained using standard protocols and the proteins of the lysate were separated by SDS PAGE electrophoresis and electrotransferred onto a nitrocellulose membrane. The membrane was incubated for 30 minutes in blocking buffer (TBST) containing the test peptide at either 5× or 20× the concentrations of the primary antibody. A primary polyclonal antibody specific for PKC-α (Santa Cruz Biotechnology, Inc., CA) was then added (15 μg/ml) and the membrane incubated for a further 45 minutes. Finally, the primary antibody was detected with a secondary antibody conjugated to alkaline phosphatase using standard procedures. The intensity of the band corresponding to PKC-α was assessed by scanning and densitometry using the Gel-Pro software (Media Cybernetics) to obtain relative band intensities (average of 3 replicas). Control assays were conducted as described above except that blocking buffer without peptide was used.
The results are expressed as relative band intensity and as a percentage of the intensity of the corresponding band in the control assay (“Relative intensity (%)”). “% inhibition” relates to the percentage of the PKC-α band that is inaccessible to the antibody.

[2] = biological target: PKC-α (Homo sapiens, UniProt P17252); experiment: Competition of PRE with PKC-α antibody binding on Western blot, Protocol A, IMR-32 lysate; parameters: endogenous PKC-α in (A) untreated human neuroblastoma (IMR-32) cells; endogenous in cells; host or cells: IMR-32 human neuroblastoma cells; details: IMR-32 cells
[3] = biological target: PKC delta (Homo sapiens, UniProt Q05655); experiment: Kinase-Glo Luminescent Kinase Assay; assay type: biochemical; details: read-out: % Inhibition PKC-δ
Description: (§1) Compounds TIM 10, 11, 13, 14, 15, and 18-22 (see Table 28) were tested for their ability to inhibit the activity of PKC-alpha, beta 1, delta and epsilon isoforms the Kinase-Glo™ Luminescent Kinase Assay (Promega, Cat # V6712/3/4) following the manufacturer's instructions.

[4] = biological target: PKC alpha (Homo sapiens, UniProt P17252); experiment: Kinase-Glo Luminescent Kinase Assay; assay type: biochemical; details: read-out: % Inhibition PKC-α
Description: as §1

[5] = Flocculation of blood serum and plasma component; details: pigs, mice and human
Description: In order to prevent this flocculation and increase the efficacy of the TIM compounds, advantage was taken of the properties of TPGS (alpha tocopherol polyethylene glycol succinate). The adjuvant may also protect the TIM compounds from enzymatic degradation.

[6] = Acute toxicity studies in mice (IV, topical, oral); assay type: in vivo, mouse
Description: Acute toxicity studies were performed on mice using three different delivery routes: IV (tail), topical and oral. […] The LD50 obtained from the IV study was determined to be 750 μg-1 mg per mouse. The “no observed adverse effect level” was determined to be 250 μg per mouse, approximately twice the concentration of TIM 10 provided to mice in the studies discussed above.

[7] = biological target: T2, PKC epsilon (Homo sapiens, UniProt Q02156); experiment: Kinase-Glo Luminescent Kinase Assay; assay type: biochemical; parameters: purchased; details: read-out: % Inhibition PKC-ε
T2 sequence (Q02156 1-737): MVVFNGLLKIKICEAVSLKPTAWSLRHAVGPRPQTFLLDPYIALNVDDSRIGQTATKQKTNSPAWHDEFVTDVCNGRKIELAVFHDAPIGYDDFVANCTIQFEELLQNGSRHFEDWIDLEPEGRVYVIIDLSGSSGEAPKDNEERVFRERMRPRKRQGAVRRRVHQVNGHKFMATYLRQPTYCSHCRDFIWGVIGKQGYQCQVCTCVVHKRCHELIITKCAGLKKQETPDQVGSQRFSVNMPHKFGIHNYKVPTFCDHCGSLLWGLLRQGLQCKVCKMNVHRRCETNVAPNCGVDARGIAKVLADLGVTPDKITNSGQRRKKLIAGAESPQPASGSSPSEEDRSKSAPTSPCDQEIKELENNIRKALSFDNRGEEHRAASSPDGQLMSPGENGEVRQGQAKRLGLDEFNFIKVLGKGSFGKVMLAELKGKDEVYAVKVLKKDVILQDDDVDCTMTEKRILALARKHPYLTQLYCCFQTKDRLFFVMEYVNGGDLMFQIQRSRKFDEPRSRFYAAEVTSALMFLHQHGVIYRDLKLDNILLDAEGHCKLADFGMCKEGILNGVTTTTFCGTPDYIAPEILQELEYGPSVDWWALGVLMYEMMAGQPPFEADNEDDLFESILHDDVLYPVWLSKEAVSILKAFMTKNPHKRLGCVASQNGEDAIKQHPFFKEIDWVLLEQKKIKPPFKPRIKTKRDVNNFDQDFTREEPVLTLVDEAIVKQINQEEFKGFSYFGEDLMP
Description: as §1

[8] = biological target: PKC beta 1 (Homo sapiens, UniProt P05771); experiment: Kinase-Glo Luminescent Kinase Assay; assay type: biochemical; parameters: purchased; details: read-out: % Inhibition PKC-βI
Description: as §1

[9] = system: peripheral blood lymphocytes; experiment: Peripheral blood lymphocyte survival and blastogenic response to mitogens; assay type: cell-based; details: primary lymphocytes of pigs, mice and human

Sequence of PKC delta (Q05655 whole entry, canonical isoform): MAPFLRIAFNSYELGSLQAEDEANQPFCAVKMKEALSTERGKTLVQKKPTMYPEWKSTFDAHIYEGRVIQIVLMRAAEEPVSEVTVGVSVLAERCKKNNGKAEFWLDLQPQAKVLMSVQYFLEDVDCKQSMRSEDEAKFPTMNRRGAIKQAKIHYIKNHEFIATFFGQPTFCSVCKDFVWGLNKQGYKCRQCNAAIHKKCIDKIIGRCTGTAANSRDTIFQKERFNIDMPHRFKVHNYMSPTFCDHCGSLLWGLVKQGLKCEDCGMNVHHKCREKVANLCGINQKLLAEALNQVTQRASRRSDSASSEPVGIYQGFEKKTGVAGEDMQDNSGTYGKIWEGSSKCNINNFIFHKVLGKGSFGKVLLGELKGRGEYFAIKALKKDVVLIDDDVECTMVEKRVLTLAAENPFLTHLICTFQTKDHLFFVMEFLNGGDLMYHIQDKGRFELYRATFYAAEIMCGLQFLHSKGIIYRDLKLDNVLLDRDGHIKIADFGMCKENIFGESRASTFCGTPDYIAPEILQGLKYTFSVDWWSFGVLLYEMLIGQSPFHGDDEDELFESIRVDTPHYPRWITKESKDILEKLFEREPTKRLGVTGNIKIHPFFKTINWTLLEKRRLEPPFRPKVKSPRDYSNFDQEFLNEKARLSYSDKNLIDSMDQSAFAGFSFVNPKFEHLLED
Sequence of PKC beta 1 (P05771 whole entry): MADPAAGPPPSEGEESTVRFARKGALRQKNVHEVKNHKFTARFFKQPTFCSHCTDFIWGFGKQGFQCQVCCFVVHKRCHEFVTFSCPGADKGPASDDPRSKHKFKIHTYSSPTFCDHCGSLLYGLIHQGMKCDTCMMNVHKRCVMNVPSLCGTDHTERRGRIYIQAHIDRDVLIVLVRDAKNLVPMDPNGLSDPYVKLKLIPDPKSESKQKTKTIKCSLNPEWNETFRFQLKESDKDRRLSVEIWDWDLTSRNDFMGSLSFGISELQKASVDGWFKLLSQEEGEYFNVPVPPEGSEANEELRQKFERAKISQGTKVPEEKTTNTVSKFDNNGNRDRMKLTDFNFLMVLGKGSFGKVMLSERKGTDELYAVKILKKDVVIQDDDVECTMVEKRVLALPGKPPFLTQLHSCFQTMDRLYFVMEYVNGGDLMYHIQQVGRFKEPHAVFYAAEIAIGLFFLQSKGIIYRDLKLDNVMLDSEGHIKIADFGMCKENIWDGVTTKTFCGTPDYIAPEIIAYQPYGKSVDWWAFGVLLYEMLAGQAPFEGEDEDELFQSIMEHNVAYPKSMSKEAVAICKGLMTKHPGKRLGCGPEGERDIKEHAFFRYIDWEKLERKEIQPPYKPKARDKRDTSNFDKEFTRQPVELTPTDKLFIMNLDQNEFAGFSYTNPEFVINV

## CC[C@H](C)[C@H](NC(=O)[C@H](CO)NC(=O)[C@@H](NC(=O)CNC(=O)[C@@H](NC(=O)[C@H](CC(C)C)NC(=O)[C@H](CC(N)=O)NC(=O)[C@H](CCC(N)=O)NC(=O)[C@H](C)NC(=O)[C@H](CC(=O)O)NC(=O)CNC(=O)CNC(=O)[C@H](CCCCN)NC(=O)[C@@H](NC(=O)[C@H](CCC(=O)O)NC(=O)[C@H](CCC(N)=O)NC(=O)[C@@H](NC(=O)CNC(=O)[C@H](CCCCN)NC(=O)[C@H](C)NC(C)=O)[C@@H](C)CC)C(C)C)[C@@H](C)CC)[C@@H](C)CC)C(N)=O [PRE 3] (Ac-AKGIQEVKGGDAQNLIGISI-NH2)
[1]; 75 μg
  Band Intensity: 0.909
[1]; 300 μg
  Band Intensity: 0.888
[1]; 600 μg
  Band Intensity: 0.889
[1]; 3.75 mg
  Band Intensity: 0.603
[1]; 5.25 mg
  Band Intensity: 0.599
[1]; 7.5 mg
  Band Intensity: 0.589
[2]; 600 μg
  Band Intensity: 0.888
[2]; 3.75 mg
  Band Intensity: 0.600
[2]; 5.25 mg
  Band Intensity: 0.603
[2]; 7.5 mg
  Band Intensity: 0.609

## CC[C@H](C)[C@H](NC(=O)[C@H](CO)NC(=O)[C@@H](NC(=O)CNC(=O)[C@@H](NC(=O)[C@H](CC(C)C)NC(=O)[C@H](CC(N)=O)NC(=O)[C@H](CCC(N)=O)NC(=O)[C@H](C)NC(=O)[C@H](CC(=O)O)NC(=O)[C@H](CCCCN)NC(=O)CNC(=O)CNC(=O)CNC(=O)CNC(=O)CNC(=O)CNC(=O)CNC(=O)[C@H](CC(C)C)NC(=O)[C@H](CCCNC(=N)N)NC(=O)[C@H](Cc1ccccc1)NC(=O)[C@H](CCCCNC(=O)CN(CCN)C(=O)Cn1cnc2c(N)ncnc21)NC(=O)[C@H](CCCNC(=N)N)NC(=O)[C@H](CCCNC(=N)N)NC(=O)[C@H](Cc1ccccc1)NC(C)=O)[C@@H](C)CC)[C@@H](C)CC)C(N)=O [TIM 10] (Ac-FRRK(PNA(A))FRLGGGGGGGKDAQNLIGISI-NH2)
[3]; 15.0 μM
  inhibition at 15 µM: 15.8%
[3]; 30.0 μM
  inhibition at 30 µM: 22.1%
[4]; 15.0 μM
  inhibition at 15 µM: 31.4%
[4]; 30.0 μM
  inhibition at 30 µM: 28.6%
[5]
  flocculation of a component of blood serum and plasma: cause flocculation
[6]; IV study
  no observed adverse effect level: 250 μg per mouse
[6]; topically or orally
  toxic effects: No toxic effects were observed at any dose
[7]; 15.0 μM
  inhibition at 15 µM: -11%
[7]; 30.0 μM
  inhibition at 30 µM: 85%
[8]; 15.0 μM
  inhibition at 15 µM: 74%
[8]; 30.0 μM
  inhibition at 30 µM: 100%
[9]
  apoptosis of peripheral blood lymphocytes: do not induce apoptosis
  blastogenic response to mitogens: do not drastically limit the blastogenic response
